Bridge positions count the residues as written; N and C are the ends. Peptide text beside a SMILES is read from it.
Columns and labels:
[1] = target: Sodium channel protein type 5 subunit alpha (Homo sapiens, UniProt Q14524); experiment: Inhibition of human NaV1.5 at -140 mV holding potential by whole-cell patch clamp assay
[2] = target: Sodium channel protein type 9 subunit alpha (Homo sapiens, UniProt Q15858); experiment: Inhibition of human NaV1.7 at -140 mV holding potential by whole-cell patch clamp assay
Sequence of Sodium channel protein type 9 subunit alpha (Q15858 whole entry): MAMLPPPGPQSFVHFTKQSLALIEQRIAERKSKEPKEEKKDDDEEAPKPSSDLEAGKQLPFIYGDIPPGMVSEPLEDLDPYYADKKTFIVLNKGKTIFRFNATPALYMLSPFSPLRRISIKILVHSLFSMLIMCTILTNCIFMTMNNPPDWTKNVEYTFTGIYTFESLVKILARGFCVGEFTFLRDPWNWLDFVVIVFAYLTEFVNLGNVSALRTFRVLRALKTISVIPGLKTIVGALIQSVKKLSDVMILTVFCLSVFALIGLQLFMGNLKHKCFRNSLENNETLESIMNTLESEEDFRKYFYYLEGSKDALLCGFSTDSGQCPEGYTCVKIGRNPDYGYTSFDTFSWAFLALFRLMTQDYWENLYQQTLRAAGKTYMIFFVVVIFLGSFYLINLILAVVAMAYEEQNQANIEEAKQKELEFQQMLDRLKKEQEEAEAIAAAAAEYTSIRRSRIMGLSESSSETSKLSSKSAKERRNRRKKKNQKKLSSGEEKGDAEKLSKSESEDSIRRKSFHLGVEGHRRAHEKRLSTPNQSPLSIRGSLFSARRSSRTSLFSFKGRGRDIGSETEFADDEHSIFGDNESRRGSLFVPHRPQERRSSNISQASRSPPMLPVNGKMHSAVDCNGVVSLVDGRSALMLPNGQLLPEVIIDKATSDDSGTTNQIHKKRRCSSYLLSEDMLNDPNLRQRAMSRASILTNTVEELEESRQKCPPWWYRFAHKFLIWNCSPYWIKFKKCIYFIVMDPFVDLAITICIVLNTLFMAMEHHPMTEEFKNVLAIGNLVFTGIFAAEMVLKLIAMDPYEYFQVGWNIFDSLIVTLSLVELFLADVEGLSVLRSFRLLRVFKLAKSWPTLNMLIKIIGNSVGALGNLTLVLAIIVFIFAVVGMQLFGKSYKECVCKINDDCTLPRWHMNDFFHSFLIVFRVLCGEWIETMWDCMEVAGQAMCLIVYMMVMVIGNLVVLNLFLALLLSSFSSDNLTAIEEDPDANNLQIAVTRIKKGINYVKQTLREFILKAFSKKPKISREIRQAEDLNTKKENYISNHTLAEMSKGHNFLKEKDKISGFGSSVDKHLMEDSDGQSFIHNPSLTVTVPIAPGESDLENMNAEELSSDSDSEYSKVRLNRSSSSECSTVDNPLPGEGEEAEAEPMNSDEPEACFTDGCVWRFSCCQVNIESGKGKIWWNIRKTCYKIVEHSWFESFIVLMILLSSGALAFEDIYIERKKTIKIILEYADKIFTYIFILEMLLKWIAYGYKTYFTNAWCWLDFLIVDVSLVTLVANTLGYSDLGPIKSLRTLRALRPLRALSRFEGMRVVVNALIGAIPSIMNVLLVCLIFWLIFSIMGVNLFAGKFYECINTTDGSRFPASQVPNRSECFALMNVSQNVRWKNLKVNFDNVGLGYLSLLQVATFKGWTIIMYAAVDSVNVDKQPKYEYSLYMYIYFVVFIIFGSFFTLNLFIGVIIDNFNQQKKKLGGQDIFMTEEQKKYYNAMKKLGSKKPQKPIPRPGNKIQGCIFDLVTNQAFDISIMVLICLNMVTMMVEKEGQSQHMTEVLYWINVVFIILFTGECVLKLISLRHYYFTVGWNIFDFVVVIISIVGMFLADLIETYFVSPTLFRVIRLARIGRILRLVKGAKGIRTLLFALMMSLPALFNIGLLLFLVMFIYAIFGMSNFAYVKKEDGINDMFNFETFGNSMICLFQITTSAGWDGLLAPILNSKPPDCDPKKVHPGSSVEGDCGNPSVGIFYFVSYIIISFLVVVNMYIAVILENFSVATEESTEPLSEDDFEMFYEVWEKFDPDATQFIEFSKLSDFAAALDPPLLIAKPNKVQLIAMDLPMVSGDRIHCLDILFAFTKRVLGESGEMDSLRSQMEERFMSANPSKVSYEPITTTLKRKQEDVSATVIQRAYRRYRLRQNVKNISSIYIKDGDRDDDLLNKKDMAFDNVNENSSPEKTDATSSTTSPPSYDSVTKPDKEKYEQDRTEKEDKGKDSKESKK

Sequence of Sodium channel protein type 5 subunit alpha (Q14524 whole entry): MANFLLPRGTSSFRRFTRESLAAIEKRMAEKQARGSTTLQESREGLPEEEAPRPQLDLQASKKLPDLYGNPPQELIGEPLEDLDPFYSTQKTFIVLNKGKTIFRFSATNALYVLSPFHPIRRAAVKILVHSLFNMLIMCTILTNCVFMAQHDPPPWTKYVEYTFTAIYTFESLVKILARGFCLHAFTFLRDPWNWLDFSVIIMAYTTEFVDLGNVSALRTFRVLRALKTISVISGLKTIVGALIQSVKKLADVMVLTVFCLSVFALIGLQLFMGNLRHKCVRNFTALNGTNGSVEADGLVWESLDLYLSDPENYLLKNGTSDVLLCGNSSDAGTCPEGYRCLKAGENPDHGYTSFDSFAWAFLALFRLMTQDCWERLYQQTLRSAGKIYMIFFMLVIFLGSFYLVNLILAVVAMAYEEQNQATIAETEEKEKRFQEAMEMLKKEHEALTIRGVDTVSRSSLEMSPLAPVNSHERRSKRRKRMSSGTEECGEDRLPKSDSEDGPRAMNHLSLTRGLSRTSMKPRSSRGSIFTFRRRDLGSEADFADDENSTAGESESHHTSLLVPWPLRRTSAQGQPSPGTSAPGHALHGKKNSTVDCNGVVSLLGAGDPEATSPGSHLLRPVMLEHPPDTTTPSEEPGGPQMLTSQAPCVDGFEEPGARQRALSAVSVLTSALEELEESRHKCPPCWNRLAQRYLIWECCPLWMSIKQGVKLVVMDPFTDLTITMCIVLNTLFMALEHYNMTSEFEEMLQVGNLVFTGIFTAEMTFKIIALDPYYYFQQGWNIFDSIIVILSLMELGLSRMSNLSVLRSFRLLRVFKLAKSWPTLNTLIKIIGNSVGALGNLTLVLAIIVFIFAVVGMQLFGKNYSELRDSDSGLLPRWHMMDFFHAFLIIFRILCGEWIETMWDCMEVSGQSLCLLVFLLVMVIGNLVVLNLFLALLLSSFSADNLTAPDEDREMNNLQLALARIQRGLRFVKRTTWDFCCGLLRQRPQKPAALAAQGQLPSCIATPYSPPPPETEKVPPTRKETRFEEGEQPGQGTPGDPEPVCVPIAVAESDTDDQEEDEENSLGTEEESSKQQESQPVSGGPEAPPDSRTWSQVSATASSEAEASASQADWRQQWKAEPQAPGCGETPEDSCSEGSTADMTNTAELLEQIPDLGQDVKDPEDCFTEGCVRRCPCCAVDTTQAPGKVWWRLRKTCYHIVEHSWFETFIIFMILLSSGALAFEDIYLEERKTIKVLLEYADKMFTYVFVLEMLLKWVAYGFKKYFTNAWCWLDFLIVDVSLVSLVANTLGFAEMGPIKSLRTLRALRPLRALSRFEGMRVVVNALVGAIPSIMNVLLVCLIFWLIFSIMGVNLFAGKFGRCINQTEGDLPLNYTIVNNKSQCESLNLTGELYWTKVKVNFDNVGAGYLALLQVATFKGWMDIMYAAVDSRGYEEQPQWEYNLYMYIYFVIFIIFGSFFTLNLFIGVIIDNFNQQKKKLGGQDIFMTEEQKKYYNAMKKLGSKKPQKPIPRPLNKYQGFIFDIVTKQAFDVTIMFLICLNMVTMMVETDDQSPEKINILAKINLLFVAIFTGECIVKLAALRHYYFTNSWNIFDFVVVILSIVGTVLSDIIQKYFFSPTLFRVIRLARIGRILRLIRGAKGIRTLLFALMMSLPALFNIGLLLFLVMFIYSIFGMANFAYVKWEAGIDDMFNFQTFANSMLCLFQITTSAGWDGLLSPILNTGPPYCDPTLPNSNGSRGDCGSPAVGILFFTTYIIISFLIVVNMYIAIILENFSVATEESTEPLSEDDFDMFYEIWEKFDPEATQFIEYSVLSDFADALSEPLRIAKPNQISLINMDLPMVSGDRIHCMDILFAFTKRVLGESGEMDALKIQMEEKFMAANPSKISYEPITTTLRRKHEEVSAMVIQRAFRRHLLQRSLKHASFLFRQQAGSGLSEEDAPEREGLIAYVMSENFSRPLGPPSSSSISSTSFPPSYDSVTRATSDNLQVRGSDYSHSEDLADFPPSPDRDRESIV

CC[C@H](C)[C@@H]1NC(=O)[C@@H]2CSSC[C@@H]3NC(=O)[C@H](C(C)C)NC(=O)[C@H](CC(C)C)NC(=O)[C@H](CC(N)=O)NC(=O)[C@@H]4CCCN4C(=O)[C@H](CCCNC(=N)N)NC(=O)[C@H](CSSC[C@H](NC(=O)[C@@H](N)CC(=O)O)C(=O)N[C@@H](CC(C)C)C(=O)NCC(=O)N[C@@H](Cc4ccccc4)C(=O)N[C@@H](CCSC)C(=O)N[C@@H](CCCNC(=N)N)C(=O)N[C@@H](CCCCN)C(=O)N2)NC(=O)[C@H](CSSC[C@@H](C(=O)N[C@@H](CCCCN)C(=O)N[C@@H](Cc2ccc(O)cc2)C(=O)N[C@H](C(=O)N[C@@H](Cc2ccccc2)C(N)=O)C(C)C)NC(=O)[C@H](Cc2c[nH]c4ccccc24)NC(=O)[C@H](CCCCN)NC(=O)[C@H](Cc2cnc[nH]2)NC(=O)[C@H]([C@@H](C)O)NC(=O)[C@H](CCCNC(=N)N)NC(=O)[C@H](CO)NC3=O)NC(=O)[C@H](C)NC(=O)[C@H](CC(=O)O)NC(=O)[C@H](CC(N)=O)NC(=O)[C@H](CC(=O)O)NC(=O)[C@@H]2CCCN2C1=O (H-DCLGFMRKCIPDNDACCRPNLVCSRTHKWCKYVF-NH2; disulfide 2-17, 9-23, 16-30)
IC50 [1]: > 5000 nM | IC50 [2]: 230 nM

CC[C@H](C)[C@@H]1NC(=O)[C@@H]2CSSC[C@@H]3NC(=O)[C@H](C(C)C)NC(=O)[C@H](CC(C)C)NC(=O)[C@H](CC(N)=O)NC(=O)[C@@H]4CCCN4C(=O)[C@H](CCCNC(=N)N)NC(=O)[C@H](CSSC[C@H](NC(=O)[C@@H](N)CC(=O)O)C(=O)N[C@@H](CC(C)C)C(=O)NCC(=O)N[C@@H](C)C(=O)N[C@@H](Cc4ccccc4)C(=O)N[C@@H](CCCNC(=N)N)C(=O)N[C@@H](CCCCN)C(=O)N2)NC(=O)[C@H](CSSC[C@@H](C(=O)N[C@@H](CCCCN)C(=O)N[C@@H](Cc2ccc(O)cc2)C(=O)N[C@H](C(=O)N[C@@H](Cc2ccccc2)C(N)=O)C(C)C)NC(=O)[C@H](Cc2c[nH]c4ccccc24)NC(=O)[C@H](CCCNC(=N)N)NC(=O)[C@H](Cc2cnc[nH]2)NC(=O)[C@H](CC(C)C)NC(=O)[C@H](CCCNC(=N)N)NC(=O)[C@H](CO)NC3=O)NC(=O)[C@H](CCCCN)NC(=O)[C@H](CC(=O)O)NC(=O)[C@H](CC(N)=O)NC(=O)[C@H](CC(=O)O)NC(=O)[C@@H]2CCCN2C1=O (H-DCLGAFRKCIPDNDKCCRPNLVCSRLHRWCKYVF-NH2; disulfide 2-17, 9-23, 16-30)
IC50 [1]: > 10000 nM | IC50 [2]: 1.6 nM

CC[C@H](C)[C@@H]1NC(=O)[C@@H]2CSSC[C@@H]3NC(=O)[C@H](C(C)C)NC(=O)[C@H](CC(C)C)NC(=O)[C@H](CC(N)=O)NC(=O)[C@@H]4CCCN4C(=O)[C@H](CCCNC(=N)N)NC(=O)[C@H](CSSC[C@H](NC(=O)[C@@H](N)CC(=O)O)C(=O)N[C@@H](CC(C)C)C(=O)NCC(=O)N[C@@H](Cc4ccccc4)C(=O)N[C@@H](C)C(=O)N[C@@H](CCCNC(=N)N)C(=O)N[C@@H](CCCCN)C(=O)N2)NC(=O)[C@H](CSSC[C@@H](C(=O)N[C@@H](CCCCN)C(=O)N[C@@H](Cc2ccc(O)cc2)C(=O)N[C@H](C(=O)N[C@@H](Cc2ccccc2)C(N)=O)C(C)C)NC(=O)[C@H](Cc2c[nH]c4ccccc24)NC(=O)[C@H](CCCCN)NC(=O)[C@H](Cc2cnc[nH]2)NC(=O)[C@H]([C@@H](C)O)NC(=O)[C@H](CCCNC(=N)N)NC(=O)[C@H](CO)NC3=O)NC(=O)[C@H](CCCCN)NC(=O)[C@H](CC(=O)O)NC(=O)[C@H](CC(N)=O)NC(=O)[C@H](CC(=O)O)NC(=O)[C@@H]2CCCN2C1=O (H-DCLGFARKCIPDNDKCCRPNLVCSRTHKWCKYVF-NH2; disulfide 2-17, 9-23, 16-30)
IC50 [1]: > 5000 nM | IC50 [2]: 430 nM

CC[C@H](C)[C@@H]1NC(=O)[C@@H]2CSSC[C@@H]3NC(=O)[C@H](C(C)C)NC(=O)[C@H](C)NC(=O)[C@H](CC(N)=O)NC(=O)[C@@H]4CCCN4C(=O)[C@H](CCCNC(=N)N)NC(=O)[C@H](CSSC[C@H](NC(=O)[C@@H](N)CC(=O)O)C(=O)N[C@@H](CC(C)C)C(=O)NCC(=O)N[C@@H](Cc4ccccc4)C(=O)N[C@@H](CCSC)C(=O)N[C@@H](CCCNC(=N)N)C(=O)N[C@@H](CCCCN)C(=O)N2)NC(=O)[C@H](CSSC[C@@H](C(=O)N[C@@H](CCCCN)C(=O)N[C@@H](Cc2ccc(O)cc2)C(=O)N[C@H](C(=O)N[C@@H](Cc2ccccc2)C(N)=O)C(C)C)NC(=O)[C@H](Cc2c[nH]c4ccccc24)NC(=O)[C@H](CCCCN)NC(=O)[C@H](Cc2cnc[nH]2)NC(=O)[C@H]([C@@H](C)O)NC(=O)[C@H](CCCNC(=N)N)NC(=O)[C@H](CO)NC3=O)NC(=O)[C@H](CCCCN)NC(=O)[C@H](CC(=O)O)NC(=O)[C@H](CC(N)=O)NC(=O)[C@H](CC(=O)O)NC(=O)[C@@H]2CCCN2C1=O (H-DCLGFMRKCIPDNDKCCRPNAVCSRTHKWCKYVF-NH2; disulfide 2-17, 9-23, 16-30)
IC50 [1]: > 20000 nM | IC50 [2]: 190 nM

CC[C@H](C)[C@@H]1NC(=O)[C@@H]2CSSC[C@@H]3NC(=O)[C@H](C(C)C)NC(=O)[C@H](CC(C)C)NC(=O)[C@H](CC(N)=O)NC(=O)[C@@H]4CCCN4C(=O)[C@H](CCCNC(=N)N)NC(=O)[C@H](CSSC[C@H](NC(=O)[C@@H](N)CC(=O)O)C(=O)N[C@@H](CC(C)C)C(=O)NCC(=O)N[C@@H](Cc4ccccc4)C(=O)N[C@@H](CCSC)C(=O)N[C@@H](CCCNC(=N)N)C(=O)N[C@@H](CCCCN)C(=O)N2)NC(=O)[C@H](CSSC[C@@H](C(=O)N[C@@H](CCCCN)C(=O)N[C@@H](Cc2ccc(O)cc2)C(=O)N[C@H](C(=O)N[C@@H](Cc2ccccc2)C(N)=O)C(C)C)NC(=O)[C@H](Cc2c[nH]c4ccccc24)NC(=O)[C@H](C)NC(=O)[C@H](Cc2cnc[nH]2)NC(=O)[C@H]([C@@H](C)O)NC(=O)[C@H](CCCNC(=N)N)NC(=O)[C@H](CO)NC3=O)NC(=O)[C@H](CCCCN)NC(=O)[C@H](CC(=O)O)NC(=O)[C@H](CC(N)=O)NC(=O)[C@H](CC(=O)O)NC(=O)[C@@H]2CCCN2C1=O (H-DCLGFMRKCIPDNDKCCRPNLVCSRTHAWCKYVF-NH2; disulfide 2-17, 9-23, 16-30)
IC50 [1]: > 5000 nM | IC50 [2]: 470 nM

CC[C@H](C)[C@@H]1NC(=O)[C@@H]2CSSC[C@@H]3NC(=O)[C@H](C(C)C)NC(=O)[C@H](CC(C)C)NC(=O)[C@H](CC(N)=O)NC(=O)[C@@H]4CCCN4C(=O)[C@H](CCCNC(=N)N)NC(=O)[C@H](CSSC[C@H](NC(=O)[C@@H](N)CC(=O)O)C(=O)N[C@@H](CC(C)C)C(=O)NCC(=O)N[C@@H](C)C(=O)N[C@@H](Cc4c[nH]c5ccccc45)C(=O)N[C@@H](CCCNC(=N)N)C(=O)N[C@@H](CCCCN)C(=O)N2)NC(=O)[C@H](CSSC[C@@H](C(=O)N[C@@H](CCCCN)C(=O)N[C@@H](Cc2ccc(O)cc2)C(=O)N[C@H](C(=O)N[C@@H](Cc2ccccc2)C(N)=O)C(C)C)NC(=O)[C@H](Cc2c[nH]c4ccccc24)NC(=O)[C@H](CCCCN)NC(=O)[C@H](Cc2cnc[nH]2)NC(=O)[C@H]([C@@H](C)O)NC(=O)[C@H](CCCNC(=N)N)NC(=O)[C@H](CO)NC3=O)NC(=O)[C@H](CCCCN)NC(=O)[C@H](CC(=O)O)NC(=O)[C@H](CC(N)=O)NC(=O)[C@H](CC(=O)O)NC(=O)[C@@H]2CCCN2C1=O (H-DCLGAWRKCIPDNDKCCRPNLVCSRTHKWCKYVF-NH2; disulfide 2-17, 9-23, 16-30)
IC50 [1]: > 10000 nM | IC50 [2]: 59 nM

CC[C@H](C)[C@@H]1NC(=O)[C@@H]2CSSC[C@@H]3NC(=O)[C@H](C(C)C)NC(=O)[C@H](CC(C)C)NC(=O)[C@H](CC(N)=O)NC(=O)[C@@H]4CCCN4C(=O)[C@H](CCCNC(=N)N)NC(=O)[C@H](CSSC[C@H](NC(=O)[C@@H](N)CC(=O)O)C(=O)N[C@@H](CC(C)C)C(=O)NCC(=O)N[C@@H](Cc4ccccc4)C(=O)N[C@@H](CCSC)C(=O)N[C@@H](CCCNC(=N)N)C(=O)N[C@@H](CCCCN)C(=O)N2)NC(=O)[C@H](CSSC[C@@H](C(=O)N[C@@H](CCCCN)C(=O)N[C@@H](Cc2ccc(O)cc2)C(=O)N[C@H](C(=O)N[C@@H](Cc2ccccc2)C(N)=O)C(C)C)NC(=O)[C@H](C)NC(=O)[C@H](CCCCN)NC(=O)[C@H](Cc2cnc[nH]2)NC(=O)[C@H]([C@@H](C)O)NC(=O)[C@H](CCCNC(=N)N)NC(=O)[C@H](CO)NC3=O)NC(=O)[C@H](CCCCN)NC(=O)[C@H](CC(=O)O)NC(=O)[C@H](CC(N)=O)NC(=O)[C@H](CC(=O)O)NC(=O)[C@@H]2CCCN2C1=O (H-DCLGFMRKCIPDNDKCCRPNLVCSRTHKACKYVF-NH2; disulfide 2-17, 9-23, 16-30)
IC50 [1]: > 5000 nM | IC50 [2]: > 5000 nM

CC[C@H](C)[C@@H]1NC(=O)[C@@H]2CSSC[C@@H]3NC(=O)[C@H](C(C)C)NC(=O)[C@H](CC(C)C)NC(=O)[C@H](CC(N)=O)NC(=O)[C@@H]4CCCN4C(=O)[C@H](CCCNC(=N)N)NC(=O)[C@H](CSSC[C@H](NC(=O)[C@@H](N)CC(=O)O)C(=O)N[C@@H](CC(C)C)C(=O)NCC(=O)N[C@@H](Cc4ccccc4)C(=O)N[C@@H](CCSC)C(=O)N[C@@H](CCCNC(=N)N)C(=O)N[C@@H](CCCCN)C(=O)N2)NC(=O)[C@H](CSSC[C@@H](C(=O)N[C@@H](CCCCN)C(=O)N[C@@H](Cc2ccc(O)cc2)C(=O)N[C@H](C(=O)N[C@@H](Cc2ccccc2)C(N)=O)C(C)C)NC(=O)[C@H](Cc2c[nH]c4ccccc24)NC(=O)[C@H](CCCCN)NC(=O)[C@H](Cc2cnc[nH]2)NC(=O)[C@H](C)NC(=O)[C@H](CCCNC(=N)N)NC(=O)[C@H](CO)NC3=O)NC(=O)[C@H](CCCCN)NC(=O)[C@H](CC(=O)O)NC(=O)[C@H](CC(N)=O)NC(=O)[C@H](CC(=O)O)NC(=O)[C@@H]2CCCN2C1=O (H-DCLGFMRKCIPDNDKCCRPNLVCSRAHKWCKYVF-NH2; disulfide 2-17, 9-23, 16-30)
IC50 [1]: > 5000 nM | IC50 [2]: 260 nM

Source: ChEMBL document CHEMBL3414527, “Engineering potent and selective analogues of GpTx-1, a tarantula venom peptide antagonist of the Na(V)1.7 sodium channel” (J Med Chem, 2015)
